In ChEMBL document CHEMBL1148879, “1,4-Dihydroindeno[1,2-c]pyrazoles as potent checkpoint kinase 1 inhibitors: extended exploration on phenyl ring substitutions and preliminary ADME/PK studies” (Bioorg Med Chem Lett, 2007):

Experiments:
[1] = biological target: T1, Serine/threonine-protein kinase Chk1 (Homo sapiens, UniProt O14757); experiment: Inhibition of recombinant CHK-mediated Cdc25C phosphorylation after 30 mins
T1 sequence (O14757 whole entry): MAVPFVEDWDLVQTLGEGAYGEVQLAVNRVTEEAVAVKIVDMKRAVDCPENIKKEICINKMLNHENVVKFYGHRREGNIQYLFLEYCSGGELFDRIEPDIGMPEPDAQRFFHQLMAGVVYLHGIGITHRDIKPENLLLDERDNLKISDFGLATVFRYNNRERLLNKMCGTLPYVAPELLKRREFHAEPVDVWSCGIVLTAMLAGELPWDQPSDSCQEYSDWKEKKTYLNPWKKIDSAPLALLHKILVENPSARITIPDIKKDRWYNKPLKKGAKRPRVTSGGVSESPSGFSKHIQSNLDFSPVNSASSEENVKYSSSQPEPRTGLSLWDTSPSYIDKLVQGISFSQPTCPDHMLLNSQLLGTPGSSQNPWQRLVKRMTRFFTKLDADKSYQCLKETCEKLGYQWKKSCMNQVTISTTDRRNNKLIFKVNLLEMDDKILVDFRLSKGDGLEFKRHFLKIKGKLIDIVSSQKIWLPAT

[2] = Antiproliferative activity against human H1299 cells by FACS assay; type: functional, cell-based; conditions: NCI-H1299
[3] = tested on: HeLa; experiment: cells; conditions: Homo sapiens
Description: Antiproliferative activity against human HeLa cells by MTS assay

[4] = Volume of distribution in mouse at 3 mg/kg, iv; type: ADME, organism-based; design: dose 3 mg/kg, route intravenous; conditions: in vivo, read-out: Vdss
[5] = Half life in mouse at 3 mg/kg, iv; type: ADME, organism-based; design: dose 3 mg/kg, route intravenous; conditions: in vivo
[6] = tested on: Mus musculus; experiment: (§1) AUC in mouse at 3 mg/kg, iv; type: ADME, organism-based, Plasma; design: dose 3 mg/kg, route intravenous; conditions: in vivo
[7] = Cmax in mouse at 10 mg/kg, ip; type: ADME, organism-based; design: dose 10 mg/kg, route intraperitoneal; conditions: in vivo
[8] = AUC in mouse at 10 mg/kg, ip; type: ADME, organism-based; design: dose 10 mg/kg, route intraperitoneal; conditions: plasma
[9] = Cmax in mouse at 10 mg/kg, po; type: ADME, organism-based; design: dose 10 mg/kg, route oral; conditions: in vivo
[10] = AUC in mouse at 10 mg/kg, po; type: ADME, organism-based; design: dose 10 mg/kg, route oral; conditions: plasma
[11] = Oral bioavailability in mouse at 10 mg/kg; type: ADME, organism-based; conditions: in vivo
[12] = Aqueous solubility at neutral pH; type: physicochemical; conditions: buffer
[13] = Metabolic stability in rat liver microsomes assessed as half life at 1 uM; type: ADME, Microsome
[14] = Apparent permeability across human Caco-2 cells at 1 uM; type: ADME, cell-based
[15] = Metabolic stability in rat liver microsome assessed as […] at 1 uM; type: ADME; conditions: liver microsomes, read-out: Activity (converted)
[16] = Metabolic stability in rat liver microsomes assessed as compound remaining at 1 uM after 30 mins; type: ADME, Microsome; conditions: read-out: Stability
[17] = Plasma clearance in mouse at 3 mg/kg, iv; type: ADME, organism-based; design: dose 3 mg/kg, route intravenous
[18] = as §1; type: ADME, organism-based, Plasma; design: dose 3 mg/kg, route intravenous; conditions: plasma

| SMILES | IC50 [1] [nM] | EC50 [3] [µM] | EC50 [2] [µM] | other results |
| --- | --- | --- | --- | --- |
| O=C(N[C@H]1CC[C@H](O)CC1)c1cccc2c1Cc1c(-c3ccc(-c4ccc(O)cc4)cc3)n[nH]c1-2 | > 10000 |  |  |  |
| COc1cc2c(cc1CN1CCN(C)CC1)Cc1c(-c3ccc(-c4ccc(O)c(C#N)c4)cc3)n[nH]c1-2 | > 10000 |  |  |  |
| OCc1cccc2c1Cc1c(-c3ccc(-c4ccc(O)cc4)cc3)n[nH]c1-2 | 7.8 | > 59 |  |  |
| CN1CCN(Cc2ccc3c(c2)Cc2c(-c4ccc(-c5ccc(O)cc5)cc4)n[nH]c2-3)CC1 | 24 | 1.7 | > 10 | Vd [4]: 3.4 L/kg; half-life [5]: 30 min; AUC [6]: 1.5 µg·h/mL; Cmax [7]: 1100 nM; AUC [8]: 2700 ng·h/mL; Cmax [9]: 90 nM; AUC [10]: 450 ng·h/mL; bioavailability [11]: 9%; solubility [12]: < 0.03 µg/mL |
| COc1cc2c(cc1C(=O)NCc1ccccn1)Cc1c(-c3ccc(-c4ccc(O)c(C#N)c4)cc3)n[nH]c1-2 | 9090 |  |  |  |
| OCc1ccc2c(c1)Cc1c(-c3ccc(-c4ccc(O)cc4)cc3)n[nH]c1-2 | 7.7 | > 59 |  |  |
| O=C(c1ccc2c(c1)-c1[nH]nc(-c3ccc(-c4ccc(O)cc4)cc3)c1C2)N1CCOCC1 | 91 |  |  |  |
| Oc1ccc(-c2ccc(-c3[nH]nc4c3Cc3cccc(O)c3-4)cc2)cc1 | 671 |  |  |  |
| O=C(NCc1ccccc1)c1cccc2c1Cc1c(-c3ccc(-c4ccc(O)cc4)cc3)n[nH]c1-2 | > 10000 |  |  |  |
| O=C(NCc1ccccn1)c1ccc2c(c1)Cc1c(-c3ccc(-c4ccc(O)cc4)cc3)n[nH]c1-2 |  | 23 | > 10 | Vd [4]: 4.7 L/kg; half-life [5]: 36 min; AUC [6]: 1.2 µg·h/mL; Cmax [7]: 2000 nM; AUC [8]: 4400 ng·h/mL; Cmax [9]: 250 nM; AUC [10]: 160 ng·h/mL; bioavailability [11]: 4%; half-life at 1 µM [13]: 25 min; Papp at 1 µM [14]: 13.3 ×10⁻⁶ cm/s; k el at 1 µM [15]: 0.00049 s⁻¹; remaining at 0.5 h, 1 µM [16]: 40%; solubility [12]: < 0.03 µg/mL |
| CC(C)(C)CNCc1cccc2c1Cc1c(-c3ccc(-c4ccc(O)cc4)cc3)n[nH]c1-2 | 209 |  |  |  |
| OCCNCc1ccc2c(c1)-c1[nH]nc(-c3ccc(-c4ccc(O)cc4)cc3)c1C2 | 12 |  |  |  |
| COc1cc2c(cc1C(=O)NCc1ccccn1)Cc1c(-c3ccc(-c4ccc(O)c(F)c4)cc3)n[nH]c1-2 | 27 |  |  | clearance [17]: 60 mL/min/kg; Vd [4]: 2.4 L/kg; half-life [5]: 27.6 min; AUC [18]: 1700 ng·h/mL; Cmax [7]: 2800 nM; AUC [8]: 3800 ng·h/mL; Cmax [9]: < 50 nM; bioavailability [11]: 0% |
| COc1cc2c(cc1C(=O)N[C@H]1CC[C@H](O)CC1)C(C)(C)c1c(-c3ccc(-c4ccc(O)cc4)cc3)n[nH]c1-2 | 18 | 8.6 | > 10 |  |
| CC(C)(C)NCc1ccc2c(c1)-c1[nH]nc(-c3ccc(-c4ccc(O)cc4)cc3)c1C2 | 34 |  |  |  |
| COc1cc2c(cc1CN1CCN(C)CC1)Cc1c(-c3ccc(-c4ccc(O)c(F)c4)cc3)n[nH]c1-2 | 28 |  |  | Vd [4]: 9.2 L/kg; half-life [5]: 36 min; AUC [6]: 0.69 µg·h/mL; Cmax [7]: 1300 nM; AUC [8]: 1600 ng·h/mL; Cmax [9]: 80 nM; AUC [10]: 130 ng·h/mL; bioavailability [11]: 6% |
| Oc1ccc(-c2ccc(-c3n[nH]c4c3Cc3ccccc3-4)cc2)cc1 | 1370 |  |  |  |

More lines, in order of falling IC50 [1], values ahead:

| IC50 [1] [nM] | EC50 [3] [µM] | SMILES | EC50 [2] [µM] | other results |
| --- | --- | --- | --- | --- |
| 7.1 | 2.8 | Oc1ccc(-c2ccc(-c3n[nH]c4c3Cc3ccc(CNCCN5CCCC5)cc3-4)cc2)cc1 |  |  |
| 6.4 |  | O=C(CNCc1ccncc1)Nc1ccc2c(c1)Cc1c(-c3ccc(-c4ccc(O)cc4)cc3)n[nH]c1-2 |  |  |
| 5.5 |  | CC(=O)Nc1cccc2c1Cc1c(-c3ccc(-c4ccc(O)cc4)cc3)n[nH]c1-2 |  |  |
| 5.2 | > 59 | CN(C)CCNCc1ccc2c(c1)-c1[nH]nc(-c3ccc(-c4ccc(O)cc4)cc3)c1C2 | > 10 |  |
| 5 |  | O=C(NCCO)c1ccc2c(c1)-c1[nH]nc(-c3ccc(-c4ccc(O)cc4)cc3)c1C2 |  |  |
| 4.4 | > 59 | OCc1ccc2c(c1)-c1[nH]nc(-c3ccc(-c4ccc(O)cc4)cc3)c1C2 | > 10 |  |
| 4.4 |  | Oc1ccc(-c2ccc(-c3n[nH]c4c3Cc3cc(O)ccc3-4)cc2)cc1 |  |  |
| 2.3 |  | COc1cc2c(cc1C(=O)N1CCN(C)CC1)Cc1c(-c3ccc(-c4ccc(O)cc4)cc3)n[nH]c1-2 |  |  |
| 2.3 |  | CNC(=O)c1ccc2c(c1)-c1[nH]nc(-c3ccc(-c4ccc(O)cc4)cc3)c1C2 |  |  |
| 2.1 | 1.7 | CCCCNCC(=O)Nc1ccc2c(c1)Cc1c(-c3ccc(-c4ccc(O)cc4)cc3)n[nH]c1-2 | > 10 |  |
| 1.2 | > 59 | O=C(CN[C@H]1CC[C@H](O)CC1)Nc1ccc2c(c1)Cc1c(-c3ccc(-c4ccc(O)cc4)cc3)n[nH]c1-2 | > 10 |  |
| 1.1 |  | COc1cc2c(cc1CN1CCC(O)CC1)Cc1c(-c3ccc(-c4ccc(O)cc4)cc3)n[nH]c1-2 |  |  |
| 0.83 |  | COc1cc2c(cc1C(=O)NCCN1CCCC1)Cc1c(-c3ccc(-c4ccc(O)cc4)cc3)n[nH]c1-2 |  |  |
| 0.74 | > 59 | O=C(CNCCO)Nc1ccc2c(c1)Cc1c(-c3ccc(-c4ccc(O)cc4)cc3)n[nH]c1-2 | > 10 |  |
| 0.56 | 0.62 | COc1cc2c(cc1CN[C@H]1CC[C@H](O)CC1)Cc1c(-c3ccc(-c4ccc(O)cc4)cc3)n[nH]c1-2 | 3.1 |  |
| 0.55 |  | COc1cc2c(cc1C(=O)N1CCOCC1)Cc1c(-c3ccc(-c4ccc(O)cc4)cc3)n[nH]c1-2 |  |  |
| 0.51 |  | COc1cc2c(cc1CN1CCN(C)CC1)Cc1c(-c3ccc(-c4ccc(O)cc4)cc3)n[nH]c1-2 |  |  |
| 0.43 |  | COc1cc2c(cc1CNCCO)Cc1c(-c3ccc(-c4ccc(O)cc4)cc3)n[nH]c1-2 |  |  |
| 0.24 | 1.4 | COc1cc2c(cc1C(=O)N1CCC(O)CC1)Cc1c(-c3ccc(-c4ccc(O)cc4)cc3)n[nH]c1-2 | 5.2 |  |
| 0.24 | 38 | COc1cc2c(cc1C(=O)N[C@H]1CC[C@H](O)CC1)Cc1c(-c3ccc(-c4ccc(O)cc4)cc3)n[nH]c1-2 | > 10 | clearance [17]: 183 mL/min/kg; Vd [4]: 6 L/kg; half-life [5]: 23.4 min; AUC [18]: 570 ng·h/mL; Cmax [7]: 1500 nM; AUC [8]: 4200 ng·h/mL; Cmax [9]: < 100 nM; bioavailability [11]: 0% |
| 0.21 | 0.91 | COc1cc2c(cc1CNCCN1CCCC1)Cc1c(-c3ccc(-c4ccc(O)cc4)cc3)n[nH]c1-2 | 5.1 |  |
